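Where inhibition never reached the appropriate level, the endpoint shown equals the highest concentration tested. Otherwise, values were interpolated linearly from a five-concentration, 48-hour dose response in 96-well plates. GI50 is the concentration that inhibits growth by half.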 Activity calls are given as the source filed them. Rule as the data show it: active = GI50 up to about 1.1 µM and inactive = higher.
Tests used:
Assay in all cases: NCI-60 cell line screen, 48 h
[1] = test system: HT-29
[2] = test system: MDA-MB-435
[3] = test system: RPMI-8226
[4] = test system: UO-31
[5] = test system: SK-MEL-5
[6] = test system: SN12C
[7] = test system: HCT-15
[8] = test system: K562
[9] = test system: EKVX
[10] = test system: A498
[11] = test system: NCI-H460
[12] = test system: KM12
[13] = test system: SK-MEL-28
[14] = test system: HL-60
[15] = test system: MCF7
[16] = test system: SNB-19
[17] = test system: DU-145
[18] = test system: HCT-116
[19] = test system: CCRF-CEM
[20] = test system: OVCAR-4
[21] = test system: HOP-62
[22] = test system: M14
[23] = test system: OVCAR-3
[24] = test system: SF-295
[25] = test system: SF-539
[26] = test system: ACHN
[27] = test system: CAKI-1
[28] = test system: IGROV-1
[29] = test system: U-251
[30] = test system: MOLT-4
[31] = test system: NCI-H522
[32] = test system: SNB-75
[33] = test system: OVCAR-8
[34] = test system: MDA-N
[35] = test system: NCI-H226
[36] = test system: PC-3
[37] = test system: T47D
[38] = test system: Hs-578T
[39] = test system: SR
[40] = test system: UACC-257
[41] = test system: 786-0
[42] = test system: SK-MEL-2
[43] = test system: LOX IMVI
[44] = test system: NCI/ADR-RES
[45] = test system: SF-268
[46] = test system: MDA-MB-231
[47] = test system: SW-620
[48] = test system: BT-549
[49] = test system: COLO 205
[50] = test system: UACC-62
[51] = test system: TK-10
[52] = test system: NCI-H23
[53] = test system: A549
[54] = test system: Malme-3M
[55] = test system: SK-OV-3

In the case of `COc1ccc(/C=C\c2cc(OC)c(OC)c(OC)c2)cc1OC(=O)CCC(=O)O`, the GI50 [1] is reported as 774 nM (active), the GI50 [2] is reported as < 0.1 nM (active) and the GI50 [3] is reported as < 0.1 nM (active). The GI50 [4] was 1340 nM (inactive), the GI50 [5] was 100 nM (active) and the GI50 [6] was < 0.1 nM (active). The GI50 [7] was under 0.1 nM, the GI50 [8] was < 0.1 nM (active) and the GI50 [9] was 14.9 nM (active). The GI50 [10] was 67 nM (active), the GI50 [11] was < 0.1 nM (active) and the GI50 [12] was 0.43 nM (active). For the same molecule, the GI50 [13] was < 10 nM (active), the GI50 [14] was < 0.1 nM (active) and the GI50 [15] was < 10 nM (active). The GI50 [16] was < 0.1 nM (active), the GI50 [17] was < 0.1 nM (active) and the GI50 [18] was < 0.1 nM (active). The GI50 [19] was < 0.1 nM (active), the GI50 [20] was 36000 nM (inactive) and the GI50 [21] was < 0.1 nM (active). The GI50 [22] was < 0.1 nM (active), the GI50 [23] was < 0.1 nM (active) and the GI50 [24] was 0.158 nM (active). For the same molecule, the GI50 [25] was < 10 nM (active), the GI50 [26] was < 0.1 nM (active) and the GI50 [27] was 330 nM (active). For the same molecule, the GI50 [28] was 0.145 nM (active), the GI50 [29] was < 0.1 nM (active) and the GI50 [30] was < 0.1 nM (active). For the same molecule, the GI50 [31] was < 0.1 nM (active), the GI50 [32] was 43000 nM (inactive) and the GI50 [33] was < 10 nM (active). The GI50 [34] was < 0.1 nM (active), the GI50 [35] was < 0.1 nM (active) and the GI50 [36] was < 0.1 nM (active). The GI50 [37] was 29900 nM (inactive), the GI50 [38] was < 10 nM (active) and the GI50 [39] was < 0.1 nM (active). For the same molecule, the GI50 [40] was > 10000 nM (inactive), the GI50 [41] was 0.263 nM (active) and the GI50 [42] was 12.6 nM (active). For the same molecule, the GI50 [43] was < 0.1 nM (active), the GI50 [44] was < 0.1 nM (active) and the GI50 [45] was < 0.1 nM (active). The GI50 [46] was < 0.1 nM (active), the GI50 [47] was < 0.1 nM (active) and the GI50 [48] was 25800 nM (inactive). The GI50 [49] was 857 nM (active), the GI50 [50] was < 0.1 nM (active) and the GI50 [51] was 46600 nM (inactive). For the same molecule, the GI50 [52] was 11.9 nM (active), the GI50 [53] was 0.655 nM (active) and the GI50 [54] was < 0.1 nM (active). The GI50 [55] was 0.895 nM (active).

From ChEMBL document CHEMBL1201862, “PubChem BioAssay data set” (2004)
